Measurements as given in publication PMC12567909 (Veterinary Sciences, 2025).
Where two headings read alike, the source gives them in different places.

Legend:
[1] = molecular target: T1, DPV pUL15FL (full-length pUL15) (anatid alphaherpesvirus 1, UniProt C6ZD26); assay type: biochemical
T1 construct: gene UL15

[2] = molecular target: T2, pUL15N (N-terminus domain of DPV pUL15) (anatid alphaherpesvirus 1, UniProt C6ZD26); details: 1 mM ATP, 2 µM protein, 2 mM MgCl2, 50 mM NaCl, pH 7.5, 37 °C
T2 construct: gene UL15

| SMILES | malachite green phosphate release [1] | malachite green phosphate release ([1]; 1 mM ATP, 2 mM MgCl2, 50 mM NaCl, pH 7.5, 37 °C) | malachite green phosphate release [2] |
| --- | --- | --- | --- |
| Nc1ncnc2c1ncn2[C@@H]1O[C@H](COP(=O)(O)OP(=O)(O)O)[C@@H](O)[C@H]1O [ADP] | DPV pUL15FL hydrolyzes both ATP and ADP | – | – |
| Nc1ncnc2c1ncn2[C@@H]1O[C@H](COP(=O)(O)OP(=O)(O)OP(=O)(O)O)[C@@H](O)[C@H]1O [ATP] | – | DPV pUL15FL hydrolyzes both ATP and ADP | the pUL15N exhibited ATPase activity like pUL15FL, whereas pUL15C did not |
